Test results from patent publication US20070197590A1, “SUBSTITUTED DIPIPERIDINE CCR2 ANTAGONISTS” (priority 2006, published 2007).
Where two headings read alike, the source gives them in different places.

How the values were obtained:
CCR2 = target: T1, CCR2 (Homo sapiens, UniProt P41597); test: MCP-1 Receptor Binding Assay in THP-1 Cells; conditions: for IC50: THP-1 cells, 0.5 nM 125I labeled MCP-1, 2 hours at 30° C., read-out: Inhibition of MCP-1 Binding IC50; for inhibition at 25 µM: test concentration of 25 μM, given where an IC50 value was not obtained, read-out: Inhibition of MCP-1 Binding, percent inhibition
T1 construct: host or cells: THP-1 cells
T1 sequence (P41597 1-360 isoform P41597-2): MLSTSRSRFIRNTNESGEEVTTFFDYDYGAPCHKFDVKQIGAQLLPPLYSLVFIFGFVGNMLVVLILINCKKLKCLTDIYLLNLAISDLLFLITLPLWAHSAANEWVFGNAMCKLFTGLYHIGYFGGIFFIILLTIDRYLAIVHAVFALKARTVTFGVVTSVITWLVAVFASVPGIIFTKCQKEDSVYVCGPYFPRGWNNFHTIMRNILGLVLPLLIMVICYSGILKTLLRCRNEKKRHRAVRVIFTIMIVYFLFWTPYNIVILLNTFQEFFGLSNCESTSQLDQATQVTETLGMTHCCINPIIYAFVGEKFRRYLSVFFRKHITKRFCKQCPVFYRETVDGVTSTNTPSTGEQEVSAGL
Experimental: THP-1 cells were obtained from American Type Culture Collection (Manassas, Va., USA). The THP-1 cells were grown in RPMI-1640 supplemented with 10% fetal bovine serum in a humidified 5% CO2 atmosphere at 37° C. The cell density was maintained […].
THP-1 cells were incubated with 0.5 nM ^125, labeled MCP-1 (Perkin-Elmer Life Sciences, Inc. Boston, Mass.) in the presence of varying concentrations of either unlabeled MCP-1 (R & D Systems, Minneapolis, Minn.) or test compound for 2 hours at 30° C. in a 96 well plate. Cells were then harvested onto a filter plate, dried, and 20 μL of Microscint 20 was added to each well. Plates were counted in a TopCount NXT, Microplate Scintillation & Luminescence Counter (Perkin-Elmer Life Sciences, Inc. Boston, Mass.). Blank values (buffer only) were subtracted from all values and drug treated values were compared to vehicle treated values. 1 μM cold MCP-1 was used for nonspecific binding.
Table 1 lists IC50 values for inhibition of MCP-1 binding to CCR2 obtained for test compounds of the invention.

[1] = test system: MCP-1 induced calcium ion influx in THP-1 cells; test: MCP-1 Induced Calcium Mobilization in THP-1 Cells; format: cell-based; conditions: for IC50: 0.2 μM MCP-1, FLIPR, read-out: Inhibition of MCP-1 Induced Calcium Ion Influx IC50; for inhibition at 25 µM: THP-1, test concentration of 25 μM, given where an IC50 value was not obtained, read-out: Inhibition of MCP-1 Induced Calcium Ion Influx, percent inhibition
Experimental: THP-1 cells were plated at a density of 8×10^5 cells/mL (100 μL/well) into poly-D lysine coated clear bottom, black 96 well plates. The cells were loaded with 5 μM fluo-3 for 45 minutes. The fluo-3 washed off and cells were incubated with varying concentrations of test compound for 15 minutes. The change in calcium ion concentration upon addition of 0.2 μM MCP-1 was determined using FLIPR and compared to vehicle.
Table 2 lists IC50 values for inhibition of MCP-1 induced influx of calcium ions.

[2] = Homo sapiens, THP-1, THP-1 cells

Row | Compound | IC50 (CCR2) [nM] | IC50 [1, 2] [nM] | also measured
1 | 4-hydroxy-4-{1-hydroxy-2-hydroxy-2-[4-(1H-indol-3-yl)-piperidin-1-yl]-ethyl}-piperidine-1-carboxylic acid (3,5-difluoro-phenyl)-amide [Compound 81] | 2600 |  | IC50 ([1]; THP-1 cells): 1800 nM
2 | COc1ccc(C2CCN(CC(CO)C3CCN(C(=O)/C=C/c4cccc(C)c4)CC3)CC2)cc1 (centres unmarked) [Compound 42] | 2200 | 3700 | 
3 | COc1ccc(C2CCN(CC(CO)C3CCN(C(=O)Nc4ccc(Cl)c(Cl)c4)CC3)CC2)cc1 (centres unmarked) [Compound 44, 4-{1-hydroxymethyl-2-[4-(4-methoxy-phenyl)-piperidin-1-yl]-ethyl}-piperidine-1-carboxylic acid (3,4-dichloro-phenyl)-amide] | 1800 | 720 | 
4 | O=C(Nc1ccc(Cl)c(Cl)c1)N1CCC(CC(CO)N2CCC(c3c[nH]c4ccccc34)CC2)CC1 (centres unmarked) [Compound 58, 4-{3-hydroxy-2-[4-(1H-indol-3-yl)-piperidin-1-yl]-propyl}-piperidine-1-carboxylic acid (3,4-dichloro-phenyl)-amide] | 5000 |  | inhibition at 25 µM ([1]; Homo sapiens): 42%
5 | COc1ccc(C2CCN(CC(NC(C)=O)C3CCN(C(=O)C=Cc4cc(F)c(F)c(F)c4)CC3)CC2)cc1 (centres unmarked) [Compound 66, N-(2-[4-(4-methoxy-phenyl)-piperidin-1-yl]-1-{1-[3-(3,4,5-trifluoro-phenyl)-acryloyl]-piperidin-4-yl}-ethyl)-acetamide] | 420 | 1100 | 
6 | O=C(/C=C/c1cc(F)cc(F)c1)N1CCC(O)(C(O)CN2CCC(c3c[nH]c4ccccc34)CC2)CC1 (centres unmarked) [Compound 71] | 40 | 200 | 
7 | O=C(/C=C/c1cccc(F)c1)N1CCC(O)(C(O)CN2CCC(c3c[nH]c4ccccc34)CC2)CC1 (centres unmarked) [Compound 76] | 470 | 165 | 
8 | O=C(/C=C/c1cccc(C(F)(F)F)c1)N1CCC(O)(C(O)CN2CCC(c3c[nH]c4ccccc34)CC2)CC1 (centres unmarked) [Compound 77] | 500 | 85 | 
9 | O=C(/C=C/c1ccsc1)N1CCC(O)(C(O)CN2CCC(c3c[nH]c4ccccc34)CC2)CC1 (centres unmarked) [Compound 79] | 810 | 7400 | 
10 | O=C(Nc1ccc(F)c(F)c1)N1CCC(O)(C(O)CN2CCC(c3c[nH]c4ccccc34)CC2)CC1 (centres unmarked) [Compound 82, 4-hydroxy-4-{1-hydroxy-2-[4-(1H-indol-3-yl)-piperidin-1-yl]-ethyl}-piperidine-1-carboxylic acid (3,4-difluoro-phenyl)-amide] | 1300 | 2600 | 
11 | OC(CN1CCC(c2c[nH]c3ccccc23)CC1)C1(O)CCN(C(=S)Nc2ccc(Cl)c(Cl)c2)CC1 (centres unmarked) [Compound 84, 4-hydroxy-4-{1-hydroxy-2-[4-(1H-indol-3-yl)-piperidin-1-yl]-ethyl}-piperidine-1-carbothioic acid (3,4-dichloro-phenyl)-amide] | 550 | 30 | 
12 | O=C(/C=C/c1cc(F)c(F)c(F)c1)N1CCC(O)(C(O)CN2CCC(c3nc4ccccc4[nH]3)CC2)CC1 (centres unmarked) [Compound 87] | 470 | 3300 | 
13 | COc1ccc(C2CCN(CC(O)C3CCN(C(=S)Nc4cc(Cl)cc(Cl)c4)CC3)CC2)cc1 (centres unmarked) [Compound 89, 4-{1-hydroxy-2-[4-(4-methoxy-phenyl)-piperidin-1-yl]-ethyl}-piperidine-1-carbothioic acid (3,5-dichloro-phenyl)-amide] | 550 | 1800 | 
14 | COc1ccc(C2CCN(CC(O)C3(O)CCN(C(=O)/C=C/c4cccc(C)c4)CC3)CC2)cc1 (centres unmarked) [Compound 95] | 1400 |  | inhibition at 25 µM ([1]; Homo sapiens): 53%
15 | COc1ccc(C2CCN(CC(O)C3CCN(C(=S)Nc4cccc(OC)c4)CC3)CC2)cc1 (centres unmarked) [Compound 96, 4-{1-hydroxy-2-[4-(4-methoxy-phenyl)-piperidin-1-yl]-ethyl}-piperidine-1-carbothioic acid (3-methoxy-phenyl)-amide] |  |  | IC50 ([1]; THP-1 cells): 13100 nM
16 | COc1ccc(C2CCN(CC(O)C3CCN(C(=S)Nc4cccc(C(F)(F)F)c4)CC3)CC2)cc1 (centres unmarked) [Compound 97, 4-{1-hydroxy-2-[4-(4-methoxy-phenyl)-piperidin-1-yl]-ethyl}-piperidine-1-carbothioic acid (3-trifluoromethyl-phenyl)-amide] |  |  | IC50 ([1]; THP-1 cells): 12900 nM
17 | COc1ccc(C2CCN(CC(O)C3CCN(C(=S)Nc4ccc(Cl)c(Cl)c4)CC3)CC2)cc1 (centres unmarked) [Compound 98, 4-{1-hydroxy-2-[4-(4-methoxy-phenyl)-piperidin-1-yl]-ethyl}-piperidine-1-carbothioic acid (3,4-dichloro-phenyl)-amide] |  | 800 | 
18 | COc1ccc(C2CCN(CC(O)C3CCN(C(=S)Nc4ccc(Br)c(F)c4)CC3)CC2)cc1 (centres unmarked) [Compound 99, 4-{1-hydroxy-2-[4-(4-methoxy-phenyl)-piperidin-1-yl]-ethyl}-piperidine-1-carbothioic acid (4-bromo-3-fluoro-phenyl)-amide] |  | 3500 | 
19 | COc1ccc(C2CCN(CC(O)C3CCN(C(=S)Nc4cccc(Cl)c4)CC3)CC2)cc1 (centres unmarked) [Compound 102, 4-{1-hydroxy-2-[4-(4-methoxy-phenyl)-piperidin-1-yl]-ethyl}-piperidine-1-carbothioic acid (3-chloro-phenyl)-amide] | 480 | 2500 | 
20 | COc1ccc(C2CCN(CC(O)C3CCN(C(=S)Nc4cccc(OC)c4)CC3)CC2)cc1 (centres unmarked) [Compound 103, 4-{1-hydroxy-2-[4-(4-methoxy-phenyl)-piperidin-1-yl]-ethyl}-piperidine-1-carbothioic acid (3-methoxy-phenyl)-amide] | 500 |  | IC50 ([1]; THP-1 cells): 2200 nM
21 | COc1ccc(C2CCN(CC(O)C3CCN(C(=S)Nc4cccc(C(F)(F)F)c4)CC3)CC2)cc1 (centres unmarked) [Compound 105, 4-{1-hydroxy-2-[4-(4-methoxy-phenyl)-piperidin-1-yl]-ethyl}-piperidine-1-carbothioic acid (3-trifluoromethyl-phenyl)-amide] | 540 |  | IC50 ([1]; THP-1 cells): 3400 nM
22 | O=C(CCc1ccc(Cl)c(Cl)c1)N1CCC(O)(C(O)CN2CCC(c3c[nH]c4ccc(F)cc34)CC2)CC1 (centres unmarked) [Compound 168, 3-(3,4-dichloro-phenyl)-1-(4-{2-[4-(5-fluoro-1H-indol-3-yl)-piperidin-1-yl]-1-hydroxy-ethyl}-4-hydroxy-piperidin-1-yl)-propan-1-one] | 2700 |  | 
23 | O=C(Cc1cccc([N+](=O)[O-])c1)N1CCC(O)(C(O)CN2CCC(c3c[nH]c4ccc(N5CCOCC5)cc34)CC2)CC1 (centres unmarked) [Compound 176, 1-(4-hydroxy-4-{1-hydroxy-2-[4-(5-morpholin-4-yl-1H-indol-3-yl)-piperidin-1-yl]-ethyl}-piperidin-1-yl)-2-(3-nitro-phenyl)-ethanone] |  |  | inhibition at 25 µM (CCR2): 42%
24 | O=C(Nc1ccc(F)c(F)c1)N1CCC(O)(C(O)CN2CCC(c3c[nH]c4ccc(N5CCOCC5)cc34)CC2)CC1 (centres unmarked) [Compound 179, 4-hydroxy-4-{1-hydroxy-2-[4-(5-morpholin-4 yl-1H-indol-3-yl)-piperidin-1-yl]-ethyl}-piperidine-1-carboxylic acid (3,4-difluoro-phenyl)-amide] | 5800 |  | 
25 | O=C(Nc1cc(F)cc(C(F)(F)F)c1)N1CCC(O)(C(O)CN2CCC(c3c[nH]c4ccc(N5CCOCC5)cc34)CC2)CC1 (centres unmarked) [Compound 180, 4-hydroxy-4-{1-hydroxy-2-[4-(5-morpholin-4-yl-1H-indol-3-yl)-piperidin-1-yl]-ethyl}-piperidine-1-carboxylic acid (3-fluoro-5-trifluoromethyl-phenyl)-amide] | 4200 |  | 
26 | OC(CN1CCC(c2c[nH]c3ccc(N4CCOCC4)cc23)CC1)C1(O)CCN(C(=S)Nc2cc(F)cc(F)c2)CC1 (centres unmarked) [Compound 183, 4-hydroxy-4-{1-hydroxy-2-[4-(5-morpholin-4-yl-1H-indol-3-yl)-piperidin-1-yl]-ethyl}-piperidine-1-carbothioic acid (3,5-difluoro-phenyl)-amide] |  |  | inhibition at 25 µM (CCR2): 47%
27 | CC(=O)Nc1ccc2[nH]cc(C3CCN(CC(O)C4CCNCC4)CC3)c2c1 (centres unmarked) [Compound 185, N-{3-[1-(2-hydroxy-2-piperidin-4-yl-ethyl)-piperidin-4-yl]-1H-indol-5-yl}-acetamide] |  |  | inhibition at 25 µM (CCR2): 54%
